Experimental findings from publication PMC9601613, “Development of a Fluorescence Polarization Assay for Multi-Determination of 10 Aminoglycosides in Pork Muscle Sample Based on Ribosomal Protein S12 and Studying Its Recognition Mechanism” (Foods, 2022) are described below.

Test [1] concerns the target T1, RpsL12 (ribosomal protein S12) (Lysinibacillus sphaericus, UniProt B1HMZ3).
T1 construct: gene rpsL; isolated ribosomal protein without rRNA; 426 bp gene in pET32a(+), purified from soluble fraction of E. coli BL21
T1 sequence (B1HMZ3 1-139): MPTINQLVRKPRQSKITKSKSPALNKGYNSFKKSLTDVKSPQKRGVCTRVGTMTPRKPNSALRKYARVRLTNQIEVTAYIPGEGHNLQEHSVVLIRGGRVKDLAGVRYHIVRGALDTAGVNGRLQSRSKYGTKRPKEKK
Put plainly: biochemical. Also on record: surface plasmon resonance, binding kinetics and equilibrium dissociation constant of aminoglycosides to RpsL12. Particulars: for kon: read-out: Ka; for koff: read-out: Kd. The protocol:
The affinities of the RpsL12 for the 10 AGs were determined by using the surface plasmon resonance technique (SPR), and the assay procedures were performed according to our recent report (see Supplementary Materials). During the SPR test, the association constant (Ka), dissociation constant (Kd), and equilibrium dissociation constant (KD = Kd/Ka) for the 10 AGs were determined. Furthermore, the absolute affinity constants (KA=Log2(KD)) for the 10 AGs were also calculated, which were used to conveniently compare their affinities. For confirmation of the molecular docking results, the receptor affinities for the 10 drugs were also determined by SPR. […] The recognition mechanisms of RpsL12 protein for AGs reported in the present study were more comprehensive than the previous report. The recombinant plasmids were synthesized at Sangon Biotech Co., Ltd. (Shanghai, China) by inserting the RpsL12 gene of Lysinibacillus sphaericus (GenBank ID: AHC30887.1) into the express vector pET32a(+). The plasmids containing the express vector pET32a-RpsL12 were transformed into BL21 (D3) for acculturation, and the gene products in the positive colonies were characterized by a polymerase chain reaction and DNA sequencing. Then the RpsL12 was expressed with the same procedures as those described in our recent report (see Supplementary Materials), and the obtained product was analyzed with SDS-PAGE electrophoresis and Western blotting.

Test [2] deals with T1, RpsL12 (ribosomal protein S12). Kind of test: surface plasmon resonance. It is filed as binding. Particulars: log2-transformed affinity, not an association constant in 1/M; sign as printed; KD itself only in supplement. An excerpt:
surface plasmon resonance on RpsL12 (ribosomal protein S12)
In general terms: Surface plasmon resonance follows binding to a sensor surface in real time, without labels.

For test [3] the target is unchanged. Kind of test: fluorescence polarization competition with tracer STR-FITC. It is filed as binding. From the text: fluorescence polarization competition with tracer STR-FITC on RpsL12 (ribosomal protein S12)
Background: In fluorescence polarisation assays a small probe gives low polarisation when free and higher when bound to something large.

What is called pKd is the negative decadic logarithm of the Kd, by convention in mol/L. A lower pKd goes with a large Kd. By pIC50 is commonly meant the negative decadic logarithm of the IC50, by convention in mol/L. Low readings indicate a high IC50, high ones a low IC50.

pIC50, pKd: −log10 of the molar value.

As for `CNC(C)[C@@H]1CC[C@@H](N)[C@@H](O[C@H]2[C@H](O)[C@@H](O[C@H]3OC[C@](C)(O)[C@H](NC)[C@H]3O)[C@H](N)C[C@@H]2N)O1` (stereo partly drawn) [gentamicin], in test [1], the pKd was 5.33, the kon came to 2180 M⁻¹ s⁻¹ and the koff is 0.0103 s⁻¹.
For the compound `CN[C@@H]1[C@@H](O[C@H]2O[C@H](CO)[C@@H](N)[C@H](O)[C@H]2O)O[C@H]2C[C@@H](N)[C@@H](O[C@H]3[C@H](O)[C@@H](O)[C@H](N)C[C@@H]3N)O[C@@H]2[C@@H]1O` [apramycin], in test [1], the kon stood at 20200 M⁻¹ s⁻¹ and the koff turned out to be 0.000281 s⁻¹.
As for `CNC[C@@H]1CC[C@@H](N)[C@@H](O[C@H]2[C@H](O)[C@@H](O[C@H]3OC[C@](C)(O)[C@H](NC)[C@H]3O)[C@H](N)C[C@@H]2N)O1` [micronomicin], in test [2], the KA stood at 14.666. Also, the pIC50 in test [3] is 6.86. Besides, in test [1], the pKd was 4.41, the kon worked out at 141 M⁻¹ s⁻¹ and the koff was determined as 0.00543 s⁻¹.
On the same counts, the results for `NCC[C@H](O)C(=O)N[C@@H]1C[C@H](N)[C@@H](O[C@H]2O[C@H](CN)[C@@H](O)[C@H](O)[C@H]2O)[C@H](O)[C@H]1O[C@H]1O[C@H](CO)[C@@H](O)[C@H](N)[C@H]1O` [amikacin] are 24.487, 6.93, 7.37, 1690 M⁻¹ s⁻¹ and 7.2e-05 s⁻¹.
In test [2], `CN[C@@H]1[C@H](O)[C@H](NC)[C@H]2O[C@@]3(O)C(=O)C[C@@H](C)O[C@H]3O[C@@H]2[C@H]1O` [spectinomycin] returned a KA of 23.900. Moreover, in test [3], the negative-log IC50 (pIC50) was 6.73. Moreover, in test [1], the pKd was 7.19, the kon came to 211000 M⁻¹ s⁻¹ and the koff was found to be 0.0135 s⁻¹.
Consider `CCNC1CC(N)C(OC2OC(CN)=CCC2N)C(O)C1OC1OCC(C)(O)C(NC)C1O` (stereo not drawn) [netimicin], for which, in test [1], the kon was 37.1 M⁻¹ s⁻¹ and the koff came to 0.00141 s⁻¹.
Regarding `NC[C@@H]1O[C@H](O[C@H]2[C@@H](O)[C@H](O[C@@H]3[C@@H](O)[C@H](N)C[C@H](N)[C@H]3O[C@H]3O[C@H](CO)[C@@H](O)[C@H](O)[C@H]3N)O[C@@H]2CO)[C@H](N)[C@@H](O)[C@@H]1O` [paromomycin], the KA in test [2] was found to be 23.851. The compound also had a negative-log IC50 (pIC50) in test [3] of 6.93. Also, in test [1], the negative-log Kd (pKd) was 7.18, the kon stood at 263000 M⁻¹ s⁻¹ and the koff was determined as 0.0174 s⁻¹.
In turn, `CN[C@@H]1[C@H](O[C@H]2[C@H](O[C@H]3[C@H](O)[C@@H](O)[C@H](N=C(N)N)[C@@H](O)[C@@H]3N=C(N)N)O[C@@H](C)[C@]2(O)C=O)O[C@@H](CO)[C@H](O)[C@H]1O` [streptomycin] came in with a KA in test [2] of 24.670. In test [3], this compound showed a pIC50 of 6.99. Besides, in test [1], the pKd was 7.43, the kon turned out to be 8200 M⁻¹ s⁻¹ and the koff is 0.000307 s⁻¹.
On the same counts, the results for `CCN[C@@H]1C[C@H](N)[C@@H](O[C@H]2O[C@H](CN)CC[C@H]2N)[C@H](O)[C@H]1O[C@H]1OC[C@](C)(O)[C@H](NC)[C@H]1O` [etimicin] are 11.358, 6.89, 3.42, 51.2 M⁻¹ s⁻¹ and 0.0195 s⁻¹.
`NC[C@@H]1O[C@H](O[C@H]2[C@@H](O)[C@H](O[C@@H]3[C@@H](O)[C@H](N)C[C@H](N)[C@H]3O[C@H]3O[C@H](CN)[C@@H](O)[C@H](O)[C@H]3N)O[C@@H]2CO)[C@H](N)[C@@H](O)[C@@H]1O` [neomycin] registered a KA in test [2] of 25.997. The same compound showed a pIC50 in test [3] of 7.10. In addition, in test [1], the pKd was 7.83, the kon was determined as 3150 M⁻¹ s⁻¹ and the koff was found to be 4.7e-05 s⁻¹.
